Results on four compounds are retold here after PMC10287695, “Non-covalent inhibitors of thioredoxin glutathione reductase with schistosomicidal activity in vivo” (Nature Communications, 2023).

SMILES strings stand for the structures. Values joined by “and” are separate entries in the source; they are usually repeats but may differ in a detail not shown here. Equal values may be shown once. Read-outs that look alike come from different tables or passages of the source.

Series [1] can be described thus: Pharmacokinetics, intraperitoneal administration. Format: in vivo, Swiss Webster mice. The note with it: for Plasma concentration, single animal / concentration at 0 h / concentration at 0.5 h / concentration at 1 h / concentration at 2 h: IP; for Plasma concentration, single animal / concentration at 0 h / concentration at 0.5 h / concentration at 1 h / concentration at 2 h / concentration at 30 min / concentration at 60 min / concentration at 120 min / plasma concentration: 100 mg/kg; for Plasma concentration, single animal: listed as 1 (8VP70). The method, then: All the mice were weighed and dosed intraperitoneally accordingly at 100 mg/kg body weight with freshly prepared 1 or 2.
Blood was collected by submandibular puncture into 1 mL Eppendorf tubes, the plasma was separated and stored in −80 °C until used. A 25 µl of mouse plasma was transferred into 1.5 ml centrifuge tube which was spiked with 2.5 µl of internal standard (IS) working standard solution […] to get final IS contraction of 250 ng/ml and the solution was vortexed. An aliquot of 75 µl of methanol/0.15 formic acid was added and gently vortexed for 2 min. The samples then centrifuged for 20 min at 4 °C and 15000 × g. A clear supernatant (50 µl) with added 50 µl mobile phase (reconstitution solution) from each extraction was then transferred into a 250 µl autosampler vial. A 3 µl aliquot of each sample was injected for LC-MSMS analysis.
The total run time of 2 min with an injection volume of 3 μl at column temperature 40 °C were efficient to achieve accepted results.
A Shimadzu LC20AD, Ultra Performance Liquid Chromatography (UPLC) system (Shimadzu Corporation, Kyoto, Japan) equipped with Shimadzu 8040 triple quadrupole (QqQ) mass analyzer (Shimadzu Corporation, Kyoto, Japan) with an electrospray ionization source (ESI) operated in the positive charge mode for the quantification of 1 and 2.

The target of series [2] is T1, TGR (Schistosoma mansoni, UniProt Q962Y6).
T1 construct: made in house
T1 sequence (Q962Y6 1-598): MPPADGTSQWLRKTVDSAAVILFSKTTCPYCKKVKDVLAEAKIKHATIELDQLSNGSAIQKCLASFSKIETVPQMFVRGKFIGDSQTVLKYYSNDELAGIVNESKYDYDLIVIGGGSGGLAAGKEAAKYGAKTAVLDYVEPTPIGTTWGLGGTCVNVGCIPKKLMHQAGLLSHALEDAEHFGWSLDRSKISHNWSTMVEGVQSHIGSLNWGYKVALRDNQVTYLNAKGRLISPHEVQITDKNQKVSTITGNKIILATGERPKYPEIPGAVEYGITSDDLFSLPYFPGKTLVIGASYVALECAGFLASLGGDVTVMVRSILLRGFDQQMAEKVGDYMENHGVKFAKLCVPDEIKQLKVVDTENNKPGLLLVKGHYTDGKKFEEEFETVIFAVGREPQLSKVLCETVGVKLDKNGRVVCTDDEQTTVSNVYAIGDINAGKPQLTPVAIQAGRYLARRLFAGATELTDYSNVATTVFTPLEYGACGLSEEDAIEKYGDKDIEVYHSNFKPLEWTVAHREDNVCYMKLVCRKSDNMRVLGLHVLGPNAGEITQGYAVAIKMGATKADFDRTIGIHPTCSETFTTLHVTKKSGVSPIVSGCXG
It is filed as biochemical, S. mansoni. The note with it: for mode of inhibition (NADPH varied): steady state. The method, then:
Master mixes with varying concentrations of NADPH were made, each with 2 nM TGR in reaction buffer. Inhibitor (2 µl) was added to a 96 well microplate in triplicate for each NADPH and inhibitor concentration, and 192 µl of the master buffer was added to each well. The reaction incubated for 15 min and 6 µl of 50 mM DTNB was added to each well. The kinetic rate was measured at A412 for 5 min.

Series [3] addresses T1, TGR. As to the kind of experiment: NADPH dependence of inhibition. Format: biochemical. The note with it: panel b, replicates. The method, then: TGR was incubated at room temperature with inhibitor in the presence or absence of 100 µM NADPH for 15 min. DTNB (3 mM) and NADPH (100 µM) were added, and the reaction was monitored at A412 for 5 min to determine reaction rate. The assay was done in triplicate.

[4] abbreviates: inhibitor 1 µM, NADPH 5 (unit not given).
The mark [5] stands for this setting: inhibitor 1 µM, NADPH 10 (unit not given).
The mark [6] stands for this setting: inhibitor 1 µM, NADPH 30 (unit not given).
The mark [7] stands for this setting: inhibitor 1 µM, NADPH 100 (unit not given).
[8] abbreviates: inhibitor 3 µM, NADPH 5 (unit not given).
Setting [9] is: inhibitor 3 µM, NADPH 10 (unit not given).
Setting [10] is: inhibitor 3 µM, NADPH 30 (unit not given).
Where [11] appears, read: inhibitor 3 µM, NADPH 100 (unit not given).

Turning to `Cc1oc(-c2ccc3c(c2)OCO3)nc1CN[C@@H]1C[C@@H]2C[C@H]([C@H]1C)C2(C)C` [Compound 1], the “Plasma concentration, single animal” value in series [1] (0 Hour) was 0.000 uM (2×) and 0.000 ug/mL (2×); in series [1] (0.5 Hour), 4.093 uM and 4.069 uM and 1.508 ug/mL and 1.499 ug/mL; in series [1] (1 Hour), 3.040 uM and 3.641 uM and 1.120 ug/mL and 1.342 ug/mL; in series [1] (2 Hour) it was 2.409 uM and 2.589 uM and 0.888 ug/mL and 0.954 ug/mL. The concentration at 0 h in series [1] (male, Swiss Webster, mouse, plasma, ip, 0 Hour, read-out: Plasma concentration, Average) is 0 nM and 0 ng/mL; in series [1] (male, Swiss Webster, mouse, plasma, ip, 0 Hour, read-out: Plasma concentration, single animal) it was 0 nM and 0 ng/mL. Further, the concentration at 0.5 h in series [1] (male, Swiss Webster, mouse, plasma, ip, 0.5 Hour, read-out: Plasma concentration, Average) was 4.11 µM and 1510 ng/mL; in series [1] (male, Swiss Webster, mouse, plasma, ip, 0.5 Hour, read-out: Plasma concentration, single animal) it was 4.16 µM and 1530 ng/mL. Besides, the concentration at 1 h in series [1] (male, Swiss Webster, mouse, plasma, ip, 1 Hour, read-out: Plasma concentration, Average) is 3.28 µM and 1210 ng/mL; in series [1] (male, Swiss Webster, mouse, plasma, ip, 1 Hour, read-out: Plasma concentration, single animal), 3.16 µM and 1160 ng/mL. The concentration at 2 h was 2.35 µM and 865 ng/mL in series [1] (male, Swiss Webster, mouse, plasma, ip, 2 Hour, read-out: Plasma concentration, Average); 2.05 µM and 754 ng/mL in series [1] (male, Swiss Webster, mouse, plasma, ip, 2 Hour, read-out: Plasma concentration, single animal). For the same compound, the concentration at 30 min in series [1] (male, Swiss Webster, mouse, plasma, ip, mice, 100 mg/kg i.p., 30 min) is 4.11 ± 0.047 µM; in series [1] (male, Swiss Webster, mouse, plasma, ip, mice, intraperitoneal, 30 min), 1510 ± 17 ng/mL. Further, the concentration at 60 min worked out at 3.28 ± 0.318 µM in series [1] (male, Swiss Webster, mouse, plasma, ip, mice, 100 mg/kg i.p., 60 min) and 1210 ± 117 ng/mL in series [1] (male, Swiss Webster, mouse, plasma, ip, mice, intraperitoneal, 60 min). For the same compound, the concentration at 120 min in series [1] (male, Swiss Webster, mouse, plasma, ip, mice, 100 mg/kg i.p., 120 min) worked out at 2.35 ± 0.277 µM; in series [1] (male, Swiss Webster, mouse, plasma, ip, mice, intraperitoneal, 120 min), 865 ± 102 ng/mL. For the same compound, the Cmax in series [1] (male, Swiss Webster, mouse, plasma, ip, mice, 100 mg/kg i.p., at 30 min) was 4.1 µM. In series [1] (male, Swiss Webster, mouse, plasma, ip, mice, 100 mg/kg i.p., estimated from the time points available), the half-life is around 1.5 h. Moreover, the overt toxicity result in series [1] (mice, 100 mg/kg i.p.) is “no overt toxicity”. The plasma concentration in series [1] (mice, 100 mg/kg i.p., 30 min) stood at 4.1 µM; in series [1] (mice, 100 mg/kg i.p., 60 min), 3.3 µM; in series [1] (mice, 100 mg/kg i.p., 120 min) it was 2.4 µM.

On to `Cc1oc(-c2ccccc2)nc1CN[C@@H]1C[C@@H]2C[C@H]([C@H]1C)C2(C)C` [Compound 3], for which the Vmax at TGR [2] (70 µM inhibitor, 6 hr preincubation) is listed as 0.0086 ± 0.0003 ΔA412/min. The avg rate at TGR [2] (NADPH 3 µM, 35 µM compound) was 0.003992; at TGR [2] (NADPH 3 µM, 50 µM compound) it was 0.003778; at TGR [2] (NADPH 3 µM, 70 µM compound) it was 0.003468; on TGR [2] (NADPH 10 µM, 35 µM compound) it was 0.007014; on TGR [2] (NADPH 10 µM, 50 µM compound) it was 0.006219; at TGR [2] (NADPH 10 µM, 70 µM compound), 0.005582. For the same compound, the avg rate at TGR [2] (NADPH 30 µM, 35 µM compound) came out at 0.009551; at TGR [2] (NADPH 30 µM, 50 µM compound) it was 0.008305; at TGR [2] (NADPH 30 µM, 70 µM compound), 0.007122; at TGR [2] (NADPH 100 µM, 35 µM compound), 0.01022; on TGR [2] (NADPH 100 µM, 50 µM compound), 0.009229; at TGR [2] (NADPH 100 µM, 70 µM compound) it was 0.00846. In addition, the entries for the “mode of inhibition (NADPH varied)” value on TGR [2] and at TGR [2] (listed as 3 (8VP83)) were “uncompetitive inhibition” and “uncompetitive behavior”, respectively.

Turning to `C#CCN(Cc1nc(-c2ccccc2)oc1C)[C@@H]1C[C@@H]2C[C@H]([C@H]1C)C2(C)C` [Compound 6], the “Rate, no NADPH” value at TGR [3] (preincubation no NADPH) is 0.02684 and 0.02786 and 0.03567. On TGR [3] (preincubation with NADPH), the “Rate, with NADPH” value was 0.00166 and 0.0006764 and 0.001495.

In the case of `CC1C(NCc2cn(C3OCC(O)C(O)C3O)c3ccccc23)CC2CC1C2(C)C` (centres unmarked) [Compound 9], the Vmax on TGR [2] (10 µM fast inhibitor) is 0.012 ± 0.00012 ΔA412/min; at TGR [2] (30 µM fast inhibitor) it was 0.0056 ± 0.00043 ΔA412/min; on TGR [2] (60 µM fast inhibitor), 0.0033 ± 0.00024 ΔA412/min. In addition, the “Rate, single replicate” value on TGR [2] (setting [4]) was 0.004595 and 0.004128 and 0.004463; at TGR [2] (setting [5]), 0.005356 and 0.005454 and 0.005186; on TGR [2] (setting [6]), 0.00852 and 0.006935; at TGR [2] (setting [7]), 0.008379 and 0.007686 and 0.007654; on TGR [2] (setting [8]), 0.002898 and 0.002979 and 0.003645; on TGR [2] (setting [9]) it was 0.003704 and 0.003359 and 0.003645. Moreover, the “Rate, single replicate” value was 0.005584 at TGR [2] (setting [10]); 0.004192 and 0.005 and 0.004489 at TGR [2] (setting [11]); 0.00023 and 0.001097 and 0.0005855 on TGR [2] (inhibitor 10 µM, NADPH 5 (unit not given)); 0.001061 and 0.0007127 and 0.0008019 at TGR [2] (inhibitor 10 µM, NADPH 10 (unit not given)); 0.0004565 and 0.000593 at TGR [2] (inhibitor 10 µM, NADPH 30 (unit not given)); 0.0001918 and 0.000912 and 1.594e-5 at TGR [2] (inhibitor 10 µM, NADPH 100 (unit not given)). Moreover, the avg rate on TGR [2] (setting [4]) is 0.004395; at TGR [2] (setting [5]), 0.005332; on TGR [2] (setting [6]), 0.007727; at TGR [2] (setting [7]) it was 0.007906; at TGR [2] (setting [8]), 0.003174; at TGR [2] (setting [9]) it was 0.003569. Besides, the avg rate was found to be 0.02094 on TGR [2] (setting [10]) and 0.00456 at TGR [2] (setting [11]). The “mode of inhibition (NADPH varied)” value at TGR [2] is recorded as “noncompetitive inhibition”.
